What was measured:
HCV replicon = test: microbe, parasite or virus in culture; format: cell-based; conditions: Hepatitis C virus, 48 h, read-out: Replicon IC50s μM

Row | SMILES | IC50 (HCV replicon) [µM] | melting point [°C]
1 | Nc1c(C(=O)N2CCOCC2)sc2nc3c(cc12)CCCCC3 [Compound 1] | > 2 | 203 to 204
2 | CC(C)(C)c1cc(C(F)(F)F)c2c(N)c(C(N)=O)sc2n1 [Compound 2] | > 2 | 
3 | CCc1c(C)nc2sc(C(=O)OC(C)(C)C)c(N)c2c1C [Compound 3, tert-Butyl 3-amino-5-ethyl-4,6-dimethylthieno[2,3-B]pyridine-2-carboxylate] | 0.5 to 2 | 135 to 136
4 | CC1(C)Cc2c(c(N3CCOCC3)nc3sc(C(N)=O)c(N)c23)CO1 [Compound 4] | > 2 | 
5 | CCc1c(C)nc2sc(-c3nnc(-c4ccccc4)o3)c(N)c2c1C [Compound 6, 5-ethyl-4,6-dimethyl-2-(5-phenyl-[1,3,4]oxadiazol-2-yl)-thieno[2,3-b]pyridin-3-yl amine] | 0.5 to 2 | 306 to 307
6 | Cc1cccc(-c2nnc(-c3sc4nc(C)c(C)c(C)c4c3N)o2)c1 [Compound 7] | 0.5 to 2 | 268 to 270
7 | Cc1nc2sc(-c3nnc(-c4cccc(F)c4)o3)c(N)c2c(C)c1C [Compound 8] | 0.5 to 2 | 300 to 302
8 | Cc1nc2sc(-c3nnc(-c4ccc(Cl)s4)o3)c(N)c2c(C)c1C [Compound 9] | 0.5 to 2 | 284 to 286
9 | Cc1nc2sc(-c3nnc(-c4ccc(F)cc4)o3)c(N)c2c(C)c1C [Compound 10] | 0.5 to 2 | 320 to 322
10 | Cc1nc2sc(-c3nnc(-c4cccc(Cl)c4)o3)c(N)c2c(C)c1C [Compound 11] | > 2 | 302 to 303
11 | Cc1nc2sc(-c3nnc(-c4ccc(Cl)cc4)o3)c(N)c2c(C)c1C [Compound 12] | > 2 | 331 to 332
12 | Cc1ccccc1-c1nnc(-c2sc3nc(C)c(C)c(C)c3c2N)o1 [Compound 13] | < 0.5 | 261 to 262
13 | Cc1nc2sc(-c3nnc(-c4ccccc4F)o3)c(N)c2c(C)c1C [Compound 14] | < 0.5 | 287 to 288
14 | Cc1nc2sc(-c3nnc(-c4ccccc4Cl)o3)c(N)c2c(C)c1C [Compound 15] | 0.5 to 2 | 284 to 286
15 | Cc1nc2sc(-c3nnc(-c4ccccn4)o3)c(N)c2c(C)c1C [Compound 16] | < 0.5 | 306 to 308
16 | CCCCNc1cc(C)c2c(N)c(C(N)=O)sc2n1 [Compound 17] | 0.5 to 2 | 169 to 170
17 | Cc1nc2sc(-c3nc(COc4ccc(Cl)c(Cl)c4)no3)c(N)c2c(C)c1C [Compound 18] | 0.5 to 2 | 197 to 200
18 | Cc1nc2sc(-c3nc(-c4cccs4)no3)c(N)c2c(C)c1C [Compound 19] | < 0.5 | 281 to 282
19 | COc1ccccc1-c1noc(-c2sc3nc(C)c(C)c(C)c3c2N)n1 [Compound 20] | 0.5 to 2 | 244 to 245
20 | Cc1nc2sc(-c3noc(-c4ccccc4)n3)c(N)c2c(C)c1C [Compound 21] | < 0.5 | 248 to 250
21 | Cc1nc2sc(-c3noc(-c4cccs4)n3)c(N)c2c(C)c1C [Compound 22] | < 0.5 | 260 to 265
22 | COc1ccccc1-c1nnc(-c2sc3nc(C)c(C)c(C)c3c2N)o1 [Compound 23] | 0.5 to 2 | 238 to 240

Row | SMILES | IC50 (HCV replicon) [µM] | melting point [°C]
23 | Cc1nc2sc(-c3nc(-c4ccccc4)no3)c(N)c2c(C)c1C [Compound 24, 4,5,6-trimethyl-2-(3-phenyl-[1,2,4]oxadiazol-5-yl)-thieno[2,3-b]pyridin-3-ylamine] | < 0.5 | 276 to 278
24 | Cc1nc2sc(-c3nc(-c4cccnc4)no3)c(N)c2c(C)c1C [Compound 25] | 0.5 to 2 | 278 to 280
25 | Cc1nc2sc(-c3ncc(-c4ccccc4)o3)c(N)c2c(C)c1C [Compound 26] | 0.5 to 2 | 284 to 285
26 | CCc1c(C)nc2sc(C(C)=O)c(-n3cccc3)c2c1C [Compound 27] | > 2 | 145 to 147
27 | Nc1c(C(=O)Nc2ccccc2)sc2nc3c(cc12)CCCCC3 [Compound 28] | > 2 | 
28 | Cc1cc(-c2cccs2)c2c(N)c(C#N)sc2n1 [Compound 30] | > 2 | 
29 | CC(C)(C)OC(=O)c1sc2nc3c(c(-c4cccc(F)c4F)c2c1N)CCCCC3 [Compound 31] | > 2 | 
30 | CC(C)(C)OC(=O)c1sc2nc3c(c(-c4ccco4)c2c1N)CCCC3 [Compound 32] | > 2 | 
31 | CC(C)(C)OC(=O)c1sc2nc3c(c(-c4ccco4)c2c1N)CCC3 [Compound 33] | > 2 | 
32 | CC(C)(C)OC(=O)c1sc2nc3c(c(-c4cccs4)c2c1N)CCCC3 [Compound 34] | > 2 | 
33 | CCc1c(C)nc2sc(C(=O)OC(C)(C)C)c(-c3cccc(C#N)c3)c2c1C [Compound 36] | > 2 | 
34 | CCc1c(C)nc2sc(C(=O)OC(C)(C)C)c(-c3ccc(OC)cc3)c2c1C [Compound 37, t-butyl 5-ethyl-3-(4-methoxy-phenyl)-4,6-dimethyl-thieno[2,3-b]pyridine-2-carboxylate] | > 2 | 
35 | Cc1cc(CO)c2c3c(sc2n1)C(=O)NC(c1ccccc1)N3 (stereo not shown) [Compound 38, 4-hydroxymethyl-2-methyl-6-phenyl-6,7-dihydro-5H-9-thia-1,5,7-triaza-fluoren-8-one] | > 2 | 
36 | CCc1c(C)nc2sc(C(=O)OC(C)(C)C)c(-c3ccc4c(c3)OCO4)c2c1C [Compound 39] | > 2 | 151 to 152
37 | CCc1c(C)nc2sc(C(=O)OC(C)(C)C)c(-c3ccoc3)c2c1C [Compound 40] | > 2 | 111 to 111.5
38 | CCc1c(C)nc2sc(C(=O)N3CCCCC3)c(-c3ccc(OC)cc3)c2c1C [Compound 41] | > 2 | 
39 | CCc1c(C)nc2sc(C(=O)OC(C)(C)C)c(-c3ccc(Cl)cc3)c2c1C [Compound 42] | > 2 | 117 to 118
40 | CCc1c(C)nc2sc(C(=O)OC(C)(C)C)c(-c3cccc(Cl)c3)c2c1C [Compound 43] | > 2 | 152.1 to 152.6
41 | CCc1c(C)nc2sc(C(=O)NCc3ccccc3)c(-c3ccc(OC)cc3)c2c1C [Compound 44] | > 2 | 
42 | CC(C)(C)OC(=O)c1sc2nc3c(c(-c4cccs4)c2c1N)CCCCC3 [Compound 45, tert-butyl 3-amino-4-thiophen-2-yl-6,7,8,9-tetrahydro-5H-1-thia-10-aza-cyclohepta[f]indene-2-carboxylate] | > 2 | 202.9 to 203.1
43 | CCOC(=O)c1sc2nc3c(c(-c4ccco4)c2c1N)CCC3 [Compound 46] | > 2 | 157.6 to 157.7
44 | CN1CCN(C(=O)c2sc3nc4c(c(-c5cccs5)c3c2N)CCCCC4)CC1 [Compound 47] | > 2 | 115 to 118

Row | SMILES | IC50 (HCV replicon) [µM] | melting point [°C]
45 | CC(C)(C)NC(=O)c1sc2nc3c(c(-c4cccs4)c2c1N)CCCCC3 [Compound 48] | > 2 | 184 to 185
46 | CCc1c(C)nc2sc(NC(=O)C3CCCC3)c(C#N)c2c1C [Compound 49, cyclopentanecarboxylic acid (3-cyano-5-ethyl-4,6-dimethyl-thieno[2,3-b]pyridin-2-yl)amide] | > 2 | 228 to 230
47 | Nc1c(C(=O)Nc2ccc(Br)cc2)sc2nc3c(c(-c4ccco4)c12)CCCCC3 [Compound 51] | > 2 | 
48 | CCc1c(C)nc2sc(NC(=O)C(C)C)c(C#N)c2c1C [Compound 53] | > 2 | 189 to 190
49 | CCc1c(C)nc2sc(S(C)(=O)=O)c(C#N)c2c1C [Compound 54] | > 2 | 219 to 220
50 | Cc1nc2sc(C(=O)OC(C)(C)C)c(N)c2c(C)c1-c1ccccc1 [Compound 55] | > 2 | 212 to 213
51 | CCc1c(C)nc2sc(C(=O)SC(C)(C)C)c(N)c2c1C [Compound 56] | > 2 | 
52 | N#Cc1c(C(=O)Nc2ccccc2)sc2nc3c(c(-c4cccs4)c12)CCCCC3 [Compound 57] | > 2 | 215.3 to 215.7
53 | N#Cc1c(NC(=O)c2cccc(C(F)(F)F)c2)sc2nc3c(c(-c4cccs4)c12)CCCCC3 [Compound 58, N-(3-cyano-4-thiophen-2-yl-6,7,8,9-tetrahydro-5H-1-thia-10-aza-cyclohepta[f]inden-2-yl)-3-trifluoromethyl-benzamide] | > 2 | 226.9 to 227.1
54 | N#Cc1c(Br)sc2nc3c(c(-c4cccs4)c12)CCCCC3 [Compound 60] | > 2 | 196.4 to 196.7
55 | N#Cc1cccc(-c2sc3nc4c(c(-c5cccs5)c3c2C#N)CCCCC4)c1 [Compound 61] | > 2 | 159 to 162
56 | N#Cc1c(-c2ccc3c(c2)OCO3)sc2nc3c(c(-c4cccs4)c12)CCCCC3 [Compound 62] | > 2 | 210 to 211
57 | COc1ccc(-c2sc3nc4c(c(-c5cccs5)c3c2C#N)CCCCC4)cc1 [Compound 63, 2-(4-methoxyphenyl)-4-thiophen-2-yl-6,7,8,9-tetrahydro-5H-1-thia-10-aza-cyclohepta[f]indene-3-carbonitrile] | > 2 | 179.2 to 179.6
58 | COc1ccc(Nc2sc3nc4c(c(-c5cccs5)c3c2C#N)CCCCC4)cc1 [Compound 64] | > 2 | 
59 | Cc1nc2sc(C(=O)OC(C)(C)C)c(N)c2c(C)c1OCCN1CCCN(C)CC1 [Compound 68] | 0.5 to 2 | 
60 | Cc1nc2sc(C(=O)OC(C)(C)C)c(N)c2c(C)c1OCCN1CCN(CCCN(C)C)CC1 [Compound 69] | 0.5 to 2 | 
61 | Cc1nc2sc(C(=O)OC(C)(C)C)c(N)c2c(C)c1OCCN1CCCCC1 [Compound 70] | 0.5 to 2 | 
62 | Cc1nc2sc(C(=O)OC(C)(C)C)c(N)c2c(C)c1OCCN(C)C [Compound 72] | > 2 | 
63 | Cc1nc2sc(C(=O)OC(C)(C)C)c(N)c2c(C)c1OCCN(C)CCN(C)C [Compound 73] | 0.5 to 2 | 
64 | CCN1CCN(CCOc2c(C)nc3sc(C(=O)OC(C)(C)C)c(N)c3c2C)CC1 [Compound 74] | > 2 | 

— patent US7645881B2, “Methods for treating hepatitis C” (PTC Therapeutics, Inc., priority 2004, dated 2010)
